By melting point is commonly meant the temperature of the solid-liquid transition.

Structures can show the parent of a compound that is named as a salt. Bounds are passed on as bounds.

In the case of `CCc1nc(-c2ccc(F)cc2)[nH]c1-c1nccs1` (as salt: HCl) [Preparation example 51], the melting point lay within 215 to 218 °C. For `CCOC(=O)Cc1nc(-c2ccc(F)cc2)oc1-c1ccccc1F` [Preparation Example 161], the melting point fell in the range of 88 to 89 °C. Then `Cc1ccc(-c2ncc(-c3cccnc3)[nH]2)cn1` (as salt: HCl) [Preparation example 26], with 269 to 273 °C; and `CCOC(=O)Cc1nc(-c2ccc3ccccc3n2)oc1-c1ccsc1` [Preparation Example 428], with 168.5 to 169.5 °C. `CCCc1nc(-c2ccc(N(C)C)cc2)[nH]c1-c1cccs1` (as salt: HCl) [Preparation example 2]: the melting point is 170 to 172 °C. Then `CCCc1nc(-c2cc(Cl)cs2)[nH]c1-c1ccccc1` (as salt: HCl) [Preparation example 40], with 188 to 190 °C; and `CCc1nc(-c2ccc(C)nc2)[nH]c1-c1ccccc1` (as salt: HCl) [Preparation example 28], with 248 to 251 °C. Turning to `CCc1nc(-c2ccc(F)cc2)[nH]c1-c1ncccn1` (as salt: HCl) [Preparation example 50], the melting point lay in the range of 190 to 192 °C. As to `C[S+]([O-])Cc1[nH]c(-c2ccc(F)cc2)nc1-c1ccccc1` (stereo not drawn) (as salt: HCl) [Preparation example 639], the melting point is 203 to 204 °C. `O=CCCNc1[nH]c(-c2ccc(F)cc2)nc1-c1ccccc1` [Preparation example 111, 5-formylethylamino-2-(4-fluorophenyl)-4-phenylimidazole]: the melting point fell in the range of 201 to 202 °C. The same measure for `CCOC(=O)Cc1nc(-c2cnc3occc3c2)oc1-c1ccc(Cl)s1` [Preparation Example 429]: 145 to 146 °C. Then `NC(=O)Cc1nc(-c2ccc(F)cc2)[nH]c1-c1ccsc1` [Preparation example 44], with 200 to 202 °C (dec.). On to `CCc1nc(-c2cccs2)[nH]c1-c1cccnc1` (as salt: HCl) [Preparation example 20], for which the melting point was in the range of 215 to 217 °C. As to `CCc1nc(-c2csc(Br)c2)[nH]c1-c1cccnc1` (as salt: HCl) [Preparation example 19], the melting point is 214 to 216 °C. `CCc1nc(-c2ccc(C)nc2)[nH]c1-c1cncs1` (as salt: HCl) [Preparation example 83] yielded a melting point of 247 to 251 °C. `CCCc1nc(-c2ccc(F)cc2)[nH]c1-c1ccc([N+](=O)[O-])cc1` (as salt: HCl) [Preparation example 91]: the melting point was 220 to 222 °C. Then `O=CNc1[nH]c(-c2ccc(F)cc2)nc1-c1ccccc1` [Preparation example 105, 5-formylamino-2-(4-fluorophenyl)-4-phenylimidazole], with 245 to 247 °C; and `CCCc1nc(-c2ccncc2)[nH]c1-c1cccs1` (as salt: HCl) [Preparation example 6], with 275 to 280 °C; and `Cc1ccc(-c2nc(CO)c(-c3cccnc3)[nH]2)cn1` (as salt: HCl) [Preparation example 114], with 266 to 269 °C. Then `CCOC(=O)Cc1nc(-c2ccc(N(C)C)cc2)oc1-c1ccc(Cl)s1` [Preparation Example 384], with 118 to 119 °C. Then `OCCc1[nH]c(-c2ccc(Cl)s2)nc1-c1cccnc1` (as salt: hydrochloride) [Preparation example 146, 2-(5-chloro-thiophen-2-yl)-5-hydroxyethyl-4-(3-pyridyl)imidazole], with 179 to 180 °C; and `CCCc1nc(-c2ccc(F)cc2)[nH]c1-c1cccc(OC)c1` (as salt: HCl) [Preparation example 96], with 120 to 122 °C; and `CCOC(=O)Cc1nc(-c2ccc3ncccc3c2)oc1-c1ccsc1` [Preparation Example 411], with 130 to 133 °C.

As to `CCc1nc(-c2ccc(C#N)cc2)[nH]c1-c1ccccc1` (as salt: HCl) [Preparation example 27], the melting point fell in the range of 285 to 288 °C. The same measure for `CCCc1nc(-c2ccc[nH]2)[nH]c1-c1ccccc1` (as salt: HCl) [Preparation example 35]: 220 to 222 °C. Then `CCCc1nc(-c2cc3ccccc3o2)[nH]c1-c1ccccc1` (as salt: HCl) [Preparation example 38], with 185 to 188 °C; and `O=C(O)Cc1nc(-c2ccc(F)cc2)oc1-c1ccccc1` (as salt: Na) [Preparation Example 153], with greater than 300 °C. Then `Cc1nc(-c2csc(Cl)c2)[nH]c1-c1cccnc1` (as salt: HCl) [Preparation example 54], with 198 to 201 °C; and `CCCc1nc(-c2ccc(F)cc2)[nH]c1-c1cccc(F)c1` (as salt: HCl) [Preparation example 99], with 228 to 230 °C. Turning to `Clc1ccc(-c2nc(Cc3nnn[nH]3)c(-c3ccccc3)s2)cc1` [Preparation Example 632, 5-[2-(4-chlorophenyl)-5-phenyl-thiazol-4-ylmethyl]tetrazole], the melting point lay within 213 to 214 °C. Then `O=C(O)Cc1nc(-c2ccc(Cl)cc2)oc1-c1cccs1` [Preparation Example 192], with 214 to 215 °C; and `CCOC(=O)Cc1nc(-c2cccc(C)c2)oc1-c1cccs1` [Preparation Example 427], with 80 to 81 °C. The same measure for `CCCc1nc(-c2cccc(F)c2)[nH]c1-c1ccccc1` (as salt: HCl) [Preparation example 30]: 192 to 193 °C; for `OCc1nc(-c2cccc(F)c2)[nH]c1-c1ccccc1` [Preparation example 115]: 232 to 234 °C; for `O=CCNc1[nH]c(-c2ccc(F)cc2)nc1-c1ccccc1` [Preparation example 106, 5-formylmethylamino-2-(4-fluorophenyl)-4-phenyl-imidazole]: 256 to 258 °C. With `OCCc1nc(-c2ccc(F)cc2)oc1-c1ccsc1` [Preparation Example 619], the melting point fell in the range of 110 to 111 °C. Then `O=C(O)Cc1nc(-c2ccc(F)cc2)oc1-c1ccsc1` [Preparation Example 618], with 207 to 209 °C; and `CCc1nc(-c2ccccc2C(N)=O)[nH]c1-c1cccnc1` (as salt: HCl) [Preparation example 18], with 250 to 253 °C. The same measure for `COCc1nc(-c2ccc(C)nc2)[nH]c1-c1cccnc1` (as salt: HCl) [Preparation example 127]: 251 to 255 °C. Then `CCCc1nc(-c2ccc(F)cc2)[nH]c1-c1ccc(F)cc1` (as salt: HCl) [Preparation example 87], with 233 to 235 °C; and `CCOC(=O)c1nc(-c2ccc(F)cc2)[nH]c1CC` [Preparation example 69, ethyl 5-ethyl-2-(4-fluorophenyl)imidazol-4-carboxylate], with 197 to 198 °C; and `CCCc1nc(-c2csc(Cl)c2)[nH]c1-c1ccccc1` (as salt: HCl) [Preparation example 34], with 194 to 196 °C. For the compound `CCCc1nc(-c2ccc3ccccc3c2)[nH]c1-c1ccccc1` (as salt: HCl) [Preparation example 32], the melting point was in the range of 189 to 190 °C. The same measure for `COc1ccccc1-c1c[nH]c(-c2ccc(F)cc2)n1` (as salt: hydrochloride) [Preparation example 66, 2-(4-fluorophenyl)-4-(2-methoxyphenyl)imidazole]: 245 to 248 °C; for `N#Cc1ccc(-c2ncc(-c3ccccc3)[nH]2)cc1` (as salt: HCl) [Preparation example 42]: greater than 300 °C; for `CCCc1nc(-c2ccc(F)cc2)[nH]c1-c1ccccc1` (as salt: HCl) [Preparation example 88]: 224 to 226 °C. With `CCc1[nH]c(-c2ccc(C)nc2)nc1-c1cccnc1.Cl.Cl.Cl`, the melting point was 270 to 273 °C (dec.). Then `CCCc1nc(-c2ccc([N+](=O)[O-])cc2)[nH]c1-c1cccs1` (as salt: HCl) [Preparation example 9], with 278 to 281 °C; and `Cl.O=C(O)Cc1nc(-c2ccc(Cl)s2)oc1-c1cccnc1`, with 234 to 238 °C (dec.); and `N#Cc1ccc(-c2ncc(-c3cccnc3)[nH]2)cc1` (as salt: HCl) [Preparation example 23], with 325 to 328 °C.

Take `CCCc1nc(-c2ccc(C#N)cc2)[nH]c1-c1cccs1` (as salt: HCl) [Preparation example 8]: the melting point lay within 251 to 254 °C. Then `CCOC(=O)Cc1nc(-c2ccc(C)cc2)oc1-c1cccs1` [Preparation Example 196], with 125 to 127 °C. Then `CCCc1nc(-c2cncc(C)c2)[nH]c1-c1cccs1` (as salt: HCl) [Preparation example 7], with 183 to 185 °C; and `CSCc1nc(-c2ccc(C#N)cc2)[nH]c1-c1cccnc1` [Preparation example 134], with 209 to 211 °C. The same measure for `CCOC(=O)Cc1nc(-c2cc3ccccc3s2)oc1-c1ccsc1` [Preparation Example 408]: 155 to 156.5 °C; for `CCc1nc(-c2csc(Cl)c2)[nH]c1-c1cccnc1` (as salt: HCl) [Preparation example 55]: 205 to 207 °C.

Turning to `COCc1nc(-c2cccc(F)c2)[nH]c1-c1ccccc1` (as salt: HCl) [Preparation example 123], the melting point was in the range of 185 to 188 °C.

On to `O=C(O)Cc1nc(-c2ccc(F)cc2)oc1-c1cccs1` [Preparation Example 189], for which the melting point fell in the range of 208 to 209 °C. The same measure for `CCCc1nc(-c2cccc(Cl)c2)[nH]c1-c1ccccc1` (as salt: HCl) [Preparation example 29]: 202 to 204 °C. Then `CCOC(=O)c1cc(-c2nc(CC)c(-c3cccnc3)[nH]2)cs1` [Preparation example 11], with 187 to 189 °C.

Source of the values: patent US7759373B2, “Large conductance calcium-activated K channel opener” (Mitsubishi Tanabe Pharma Corporation, priority 2001, dated 2010).
